These are literature values, as cited in patent US20030032674A1, “Use of unsaturated fatty acids to treat severe inflammatory diseases” (priority 2001, published 2003).

For data set [1], the system named is natural killer cell activity. Conditions: infusion; mice and humans; cited from earlier work.
For data set [2] the following is noted: infusion; cited from earlier work.
A further data set relates to platelet aggregation. Conditions: infusion; cited from earlier work.

In the case of “1,2,3-trieicosapentaenoyl-glycerol [EPA-TG]”, in data set [1], the “natural killer cell activity” value was “inhibit”. The “urinary concentration of prostaglandin I3 and thromboxane A3” value in data set [2] is reported as “increase”. Besides, the platelet aggregation result with platelet aggregation is reported as “decrease”.
